Experimental data from US10533010B2, “Substituted indole Mcl-1 inhibitors” (Vanderbilt University, priority 2014, dated 2020).

Target: recombinant Mcl-1 (residues 172-327) (Homo sapiens (Human), UniProt Q07820)
Test: Fluorescence polarization anisotropy competition assay (FITC-Bak or FITC-Bim BH3 peptide) with Mcl-1
Assay type: binding
Settings: Table 2; Ki bins given in nM; FITC-Bak or FITC-Bim peptide competition; Ki converted from IC50; read-out: Ki for Inhibition of Mcl-1

Chain of recombinant Mcl-1 (residues 172-327) (Q07820 172-327): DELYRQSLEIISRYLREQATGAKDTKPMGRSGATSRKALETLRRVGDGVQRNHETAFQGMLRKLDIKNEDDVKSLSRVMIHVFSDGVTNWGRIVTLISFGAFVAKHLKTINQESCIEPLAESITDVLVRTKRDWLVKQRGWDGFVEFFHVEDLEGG

| Compound | Ki |
| --- | --- |
| Cc1cc(OCCCc2c(C(=O)NC[C@H]3CC[C@H](C(=O)O)CC3)[nH]c3c(-c4c(C)nn(C)c4C)c(Cl)ccc23)cc(C)c1Cl [I-324, (1r,4r)-4-((6-chloro-3-(3-(4-chloro-3,5-dimethylphenoxy)propyl)-7-(1,3,5-trimethyl-1H-pyrazol-4-yl)-1H-indole-2-carboxamido)methyl)cyclohexane-1-carboxylic acid] | < 50 nM |
| Cc1cc(OCCCc2c(C(=O)Nc3ccnc(C(=O)O)c3)[nH]c3c(-c4c(C)nn(C)c4C)c(Cl)ccc23)cc(C)c1Cl [I-180, 4-(6-chloro-3-(3-(4-chloro-3,5-dimethylphenoxy)propyl)-7-(1,3,5-trimethyl-1H-pyrazol-4-yl)-1H-indole-2-carboxamido)picolinic acid] | < 50 nM |
| Cc1cc(OCCCc2c(C(=O)N(C)Cc3cc(C(=O)O)c(C)o3)n(C)c3c(-c4c(C)nn(C)c4C)cccc23)cc(C)c1Cl [I-274, 5-((3-(3-(4-chloro-3,5-dimethylphenoxy)propyl)-N,1-dimethyl-7-(1,3,5-trimethyl-1H-pyrazol-4-yl)-1H-indole-2-carboxamido)methyl)-2-methylfuran-3-carboxylic acid] | 101 to 299 nM |
| Cc1cc(OCCCc2c3n(c4c(-c5c(C)nn(C)c5C)c(Cl)ccc24)CCCN(Cc2cc(NCCC(C)C)cc(C(=O)O)c2)C3=O)cc(C)c1Cl [I-328, 3-((8-chloro-11-(3-(4-chloro-3,5-dimethylphenoxy)propyl)-1-oxo-7-(1,3,5-trimethyl-1H-pyrazol-4-yl)-4,5-dihydro-1H-[1,4]diazepino[1,2-a]indol-2(3H)-yl)methyl)-5-(isopentylamino)benzoic acid] | < 50 nM |
| Cc1ccc(C(=O)O)cc1N1CCCn2c(c(CCCOc3cc(C)c(Cl)c(C)c3)c3ccc(Cl)c(-c4c(C)nn(C)c4C)c32)C1=O [I-100, 3-(8-chloro-11-(3-(4-chloro-3,5-dimethylphenoxy)propyl)-1-oxo-7-(1,3,5-trimethyl-1H-pyrazol-4-yl)-4,5-dihydro-1H-[1,4]diazepino[1,2-a]indol-2(3H)-yl)-4-methylbenzoic acid] | < 50 nM |
| Cc1cc(OCCCc2c3n(c4c(-c5c(C)nn(C)c5C)c(Cl)ccc24)[C@@H](C)CN(Cc2ccc(C(=O)O)o2)C3=O)cc(C)c1Cl [I-148, (S)-5-((7-chloro-10-(3-(4-chloro-3,5-dimethylphenoxy)propyl)-4-methyl-1-oxo-6-(1,3,5-trimethyl-1H-pyrazol-4-yl)-3,4-dihydropyrazino[1,2-a]indol-2(1H)-yl)methyl)furan-2-carboxylic acid] | < 50 nM |
| Cc1cc(OCCCc2c3n(c4c(-c5c(C)nn(C)c5C)c(Cl)ccc24)CCN(Cc2ccc(C(=O)O)o2)C3=O)cc(C)c1Cl [I-143, 5-((7-chloro-10-(3-(4-chloro-3,5-dimethylphenoxy)propyl)-1-oxo-6-(1,3,5-trimethyl-1H-pyrazol-4-yl)-3,4-dihydropyrazino[1,2-a]indol-2(1H)-yl)methyl)furan-2-carboxylic acid] | < 50 nM |
| Cc1cc(OCCCc2c3n(c4c(-c5c(C)nn(C)c5C)c(Cl)ccc24)CCCN(C[C@H]2CC[C@H](C(=O)O)CC2)C3=O)cc(C)c1Cl [I-371, (1r,4r)-4-((8-chloro-11-(3-(4-chloro-3,5-dimethylphenoxy)propyl)-1-oxo-7-(1,3,5-trimethyl-1H-pyrazol-4-yl)-4,5-dihydro-1H-[1,4]diazepino[1,2-a]indol-2(3H)-yl)methyl)cyclohexane-1-carboxylic acid] | < 50 nM |
| Cc1cc(OCCCc2c3n(c4c(-c5c(C)nn(C)c5C)c(Cl)ccc24)CCCN(c2cc(C(=O)O)cc4c2ncn4C)C3=O)cc(C)c1Cl [I-365, 4-(8-chloro-11-(3-(4-chloro-3,5-dimethylphenoxy)propyl)-1-oxo-7-(1,3,5-trimethyl-1H-pyrazol-4-yl)-4,5-dihydro-1H-[1,4]diazepino[1,2-a]indol-2(3H)-yl)-1-methyl-1H-benzo[d]imidazole-6-carboxylic acid] | < 50 nM |
| Cc1cc(OCCCc2c(C(=O)NCc3cc(C(=O)O)cc(N4CCN(C(=O)CC(C)C)CC4)n3)[nH]c3c(-c4c(C)nn(C)c4C)c(Cl)ccc23)cc(C)c1Cl [I-284, 2-((6-chloro-3-(3-(4-chloro-3,5-dimethylphenoxy)propyl)-7-(1,3,5-trimethyl-1H-pyrazol-4-yl)-1H-indole-2-carboxamido)methyl)-6-(4-(3-methylbutanoyl)piperazin-1-yl)isonicotinic acid] | < 50 nM |
| Cc1cc(OCCCc2c3n(c4c(-c5c(C)nn(C)c5C)c(Cl)ccc24)CCCN(c2cc(C(=O)O)c4c(Br)cn(C)c4c2)C3=O)cc(C)c1Cl [I-258, 3-bromo-6-(8-chloro-11-(3-(4-chloro-3,5-dimethylphenoxy)propyl)-1-oxo-7-(1,3,5-trimethyl-1H-pyrazol-4-yl)-4,5-dihydro-1H-[1,4]diazepino[1,2-a]indol-2(3H)-yl)-1-methyl-1H-indole-4-carboxylic acid] | < 50 nM |
| Cc1cc(OCCCc2c3n(c4c(-c5c(C)nn(C)c5C)c(Cl)ccc24)CCCN(c2csc(C(=O)O)n2)C3=O)cc(C)c1Cl [I-360, 4-(8-chloro-11-(3-(4-chloro-3,5-dimethylphenoxy)propyl)-1-oxo-7-(1,3,5-trimethyl-1H-pyrazol-4-yl)-4,5-dihydro-1H-[1,4]diazepino[1,2-a]indol-2(3H)-yl)thiazole-2-carboxylic acid] | < 50 nM |
| Cc1cc(OCCCc2c3n(c4c(-c5c(C)nn(C)c5C)c(Cl)ccc24)CCCN(c2cc(Cl)cc(C(=O)O)c2)C3=O)cc(C)c1Cl [I-221, 3-chloro-5-(8-chloro-11-(3-(4-chloro-3,5-dimethylphenoxy)propyl)-1-oxo-7-(1,3,5-trimethyl-1H-pyrazol-4-yl)-4,5-dihydro-1H-[1,4]diazepino[1,2-a]indol-2(3H)-yl)benzoic acid] | < 50 nM |
| Cc1cc(OCCCc2c(C(=O)N[C@H]3CCCC[C@H]3C(=O)O)[nH]c3c(-c4c(C)nn(C)c4C)c(Cl)ccc23)cc(C)c1Cl [I-333, (1R,2S)-2-(6-chloro-3-(3-(4-chloro-3,5-dimethylphenoxy)propyl)-7-(1,3,5-trimethyl-1H-pyrazol-4-yl)-1H-indole-2-carboxamido)cyclohexane-1-carboxylic acid] | < 50 nM |
| Cc1cc(OCCCc2c(C(=O)Nc3cc[nH]n3)[nH]c3c(-c4c(C)nn(C)c4C)cccc23)cc(C)c1Cl [I-313, 3-(3-(4-chloro-3,5-dimethylphenoxy)propyl)-N-(1H-pyrazol-3-yl)-7-(1,3,5-trimethyl-1H-pyrazol-4-yl)-1H-indole-2-carboxamide] | 501 to 999 nM |
| Cc1cc(OCCCc2c3n(c4c(-c5c(C)nn(C)c5C)c(Cl)ccc24)[C@@H](C)CN(c2ccc(C(=O)O)c4ncccc24)C3=O)cc(C)c1Cl [I-168, (S)-5-(7-chloro-10-(3-(4-chloro-3,5-dimethylphenoxy)propyl)-4-methyl-1-oxo-6-(1,3,5-trimethyl-1H-pyrazol-4-yl)-3,4-dihydropyrazino[1,2-a]indol-2(1H)-yl)quinoline-8-carboxylic acid] | < 50 nM |
| Cc1cc(OCCCc2c(C(=O)N3CCN(c4ccc(C(=O)O)cc4)CC3)[nH]c3c(-c4c(C)nn(C)c4C)c(Cl)ccc23)cc(C)c1Cl [I-335, 4-(4-(6-chloro-3-(3-(4-chloro-3,5-dimethylphenoxy)propyl)-7-(1,3,5-trimethyl-1H-pyrazol-4-yl)-1H-indole-2-carbonyl)piperazin-1-yl)benzoic acid] | < 50 nM |
